Laboratory results published in publication doi:10.1101/577908v1, “Host metabolic reprogramming of Pseudomonas aeruginosa by phage-based quorum sensing modulation” (biorxiv, 2019).

Columns and labels:
PA1217 = molecular target: T1, PA1217 (Pseudomonas aeruginosa, UniProt Q9I4C1); assay: DTNB end-point assay of CoA release; 1H-NMR; format: biochemical; details: 1 mM acetyl-CoA, 2 mM 3-methyl-2-oxobutanoic acid, MgCl2, pH 7.5, 37 °C
T1 construct: full-length, GST-tagged (pGEX-6P-1), expressed in E. coli BL21(DE3), GSTrap purified; tag removal not mentioned
T1 sequence (Q9I4C1 1-455): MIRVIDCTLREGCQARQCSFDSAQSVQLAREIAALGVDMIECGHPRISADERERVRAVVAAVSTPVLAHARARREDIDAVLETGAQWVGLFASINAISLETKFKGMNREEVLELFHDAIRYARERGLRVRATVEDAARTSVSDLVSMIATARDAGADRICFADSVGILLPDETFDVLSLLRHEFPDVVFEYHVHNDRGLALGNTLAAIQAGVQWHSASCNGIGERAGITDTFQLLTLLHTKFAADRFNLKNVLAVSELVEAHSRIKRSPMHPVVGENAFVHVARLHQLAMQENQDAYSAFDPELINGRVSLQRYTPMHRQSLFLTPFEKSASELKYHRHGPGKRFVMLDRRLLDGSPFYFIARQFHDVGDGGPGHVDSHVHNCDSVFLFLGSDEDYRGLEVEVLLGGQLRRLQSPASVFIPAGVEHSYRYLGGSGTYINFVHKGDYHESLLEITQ

Qst = molecular target: T2, Qst (Pseudomonas phage LUZ19, UniProt A9J759); assay: DTNB end-point assay of CoA release; 1H-NMR; format: biochemical; details: 1 mM acetyl-CoA, 2 mM 3-methyl-2-oxobutanoic acid, MgCl2, pH 7.5, 37 °C
T2 construct: gene gp4; His-tagged (pEXP5-CT/TOPO), expressed in E. coli BL21(DE3), HisTrap purified; predicted 13 kDa
T2 sequence (A9J759 1-122): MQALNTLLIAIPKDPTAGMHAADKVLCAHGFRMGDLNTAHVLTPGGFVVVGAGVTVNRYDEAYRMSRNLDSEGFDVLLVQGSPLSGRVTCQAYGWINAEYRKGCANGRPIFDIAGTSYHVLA

SMILES: CC(=O)SCCNC(=O)CCNC(=O)[C@H](O)C(C)(C)COP(=O)(O)OP(=O)(O)OC[C@H]1O[C@@H](n2cnc3c(N)ncnc32)[C@H](O)[C@@H]1OP(=O)(O)O [acetyl-CoA]
- DTNB end-point assay of CoA release; 1H-NMR (PA1217): products were only formed by LeuA, while PA1217 merely consumed acetyl-CoA
- DTNB end-point assay of CoA release; 1H-NMR (Qst): Qst was also able to consume acetyl-CoA
